ChEMBL document CHEMBL5523732, “Structure-Guided Design of Potent Coronavirus Inhibitors with a 2-Pyrrolidone Scaffold: Biochemical, Crystallographic, and Virological Studies” (J Med Chem, 2024)

Experiments:
[1] = Inhibition of MERS-CoV 3CLpro using SG-QXL520 as substrate preincubated with compound for 30 mins followed by susbtrate addition and measured after 30 mins by FRET assay; design: species or system Middle East respiratory syndrome-related coronavirus
[2] = target: Replicase polyprotein 1ab (Severe acute respiratory syndrome coronavirus 2, UniProt P0DTD1); test: Inhibition of full length N-terminal his6-tagged SARS-CoV-2 3CL protease using FAM-SAVLQ as substrate preincubated with compound for 30 mins followed by substrate addition and measured after 30 mins by FRET assay
[3] = Cytotoxicity against cat CRFK cells incubated for 72 hrs by CytoTox 96 analysis; format: toxicity, cell-based, Felis catus
SARS-CoV-2 = test: Antiviral activity against SARS CoV-2 Wuhan-Hu-1 infected in HEK293T cells incubated for 24 hrs; format: functional, organism-based; details: Severe acute respiratory syndrome coronavirus 2, Wuhan-Hu-1, HEK-293T

Compound | IC50 [1] [nM] | IC50 [2] [nM] | CC50 at 72 h [3] [nM] | EC50 (SARS-CoV-2) [nM]
CC(C)C[C@H](NC(=O)OC[C@@H]1CCC(=O)N1CCc1ccccc1)C(=O)N[C@@H](C[C@@H]1CCNC1=O)C(O)S(=O)(=O)O (stereo not given in full) | 160 | 550 | > 50000 | 
CC(C)C[C@H](NC(=O)OC[C@@H]1CCC(=O)N1Cc1ccc2c(c1)OC(F)(F)O2)C(=O)N[C@H](C=O)C[C@@H]1CCNC1=O | 50 | 270 | > 50000 | 510
CC(C)C[C@H](NC(=O)OC[C@@H]1CCC(=O)N1Cc1ccccc1)C(=O)N[C@@H](C[C@@H]1CCNC1=O)C(O)S(=O)(=O)O (stereo not given in full) | 90 | 490 | > 50000 | 
CC(C)C[C@H](NC(=O)OC[C@@H]1CCC(=O)N1CCC1CCCCC1)C(=O)N[C@H](C=O)C[C@@H]1CCNC1=O | 90 | 500 | > 50000 | 
CC(C)C[C@H](NC(=O)OCC1CCN(Cc2ccco2)C1=O)C(=O)N[C@@H](C[C@@H]1CCNC1=O)C(O)S(=O)(=O)O (stereo not given in full) | 150 | 2010 | > 50000 | 
CC(C)C[C@H](NC(=O)OC[C@@H]1CCC(=O)N1CC1CCC(F)(F)CC1)C(=O)N[C@@H](C[C@@H]1CCNC1=O)C(O)S(=O)(=O)O (stereo not given in full) | 60 | 540 | > 50000 | 
CC(C)C[C@H](NC(=O)OC[C@@H]1CCC(=O)N1C[C@H]1C[C@@H]2CC[C@H]1C2)C(=O)N[C@@H](C[C@@H]1CCNC1=O)C(O)S(=O)(=O)O (stereo not given in full) | 60 | 410 | > 50000 | 
CC(C)C[C@H](NC(=O)OC[C@@H]1CCC(=O)N1CC1CCC(F)(F)CC1)C(=O)N[C@H](C=O)C[C@@H]1CCNC1=O | 60 | 550 | > 50000 | 
CC(C)C[C@H](NC(=O)OCC1CCN(Cc2cccc(C(F)(F)F)c2)C1=O)C(=O)N[C@H](C=O)C[C@@H]1CCNC1=O (stereo not given in full) | 70 | 850 | > 50000 | 
CC(C)C[C@H](NC(=O)OC[C@@H]1CCC(=O)N1CC1CCCCC1)C(=O)N[C@H](C=O)C[C@@H]1CCNC1=O | 50 | 250 | > 50000 | 750
CC(C)C[C@H](NC(=O)OCC1CC(=O)N(Cc2cccc(C(F)(F)F)c2)C1)C(=O)N[C@@H](C[C@@H]1CCNC1=O)C(O)S(=O)(=O)O (stereo not given in full) | 70 | 350 | > 50000 | 
CC(C)C[C@H](NC(=O)OC[C@@H]1CCC(=O)N1Cc1cccc(Cl)c1)C(=O)N[C@@H](C[C@@H]1CCNC1=O)C(O)S(=O)(=O)O (stereo not given in full) | 18 | 100 | > 50000 | 120
CC(C)C[C@H](NC(=O)OCC1CCN(Cc2cccc(C(F)(F)F)c2)C1=O)C(=O)N[C@@H](C[C@@H]1CCNC1=O)C(O)S(=O)(=O)O (stereo not given in full) | 60 | 880 | > 50000 | 
CC(C)C[C@H](NC(=O)OC[C@H]1CCC(=O)N1CC1CCCCC1)C(=O)N[C@H](C=O)C[C@@H]1CCNC1=O | 70 | 500 | > 50000 | 
CC(C)C[C@H](NC(=O)OCC1CC(=O)N(CC2CC3C=CC2C3)C1)C(=O)N[C@H](C=O)C[C@@H]1CCNC1=O (stereo not given in full) | 80 | 190 | > 50000 | 280
CC(C)C[C@H](NC(=O)OCC1CCN(C[C@H]2C[C@H]3C=C[C@@H]2C3)C1=O)C(=O)N[C@H](C=O)C[C@@H]1CCNC1=O (stereo not given in full) | 80 | 460 | > 50000 | 
CC(C)C[C@H](NC(=O)OCC1CCN(CC2CCCCC2)C1=O)C(=O)N[C@H](C=O)C[C@@H]1CCNC1=O (stereo not given in full) | 310 | 230 | > 50000 | 20
CC(C)C[C@H](NC(=O)OCC1CC(=O)N(CC2CC3C=CC2C3)C1)C(=O)N[C@@H](C[C@@H]1CCNC1=O)C(O)S(=O)(=O)O (stereo not given in full) | 80 | 190 | > 50000 | 350
CC(C)C[C@H](NC(=O)OC[C@@H]1CCC(=O)N1CCC1CCCCC1)C(=O)N[C@@H](C[C@@H]1CCNC1=O)C(O)S(=O)(=O)O (stereo not given in full) | 90 | 580 | > 50000 | 

Compound | IC50 [1] [nM] | IC50 [2] [nM] | CC50 at 72 h [3] [nM] | EC50 (SARS-CoV-2) [nM]
CC(C)C[C@H](NC(=O)OCC1CCN(C[C@H]2C[C@H]3CC[C@@H]2C3)C1=O)C(=O)N[C@H](C=O)C[C@@H]1CCNC1=O (stereo not given in full) | 90 | 430 | > 50000 | 
CC(C)C[C@H](NC(=O)OCC1CC(=O)N(Cc2ccco2)C1)C(=O)N[C@H](C=O)C[C@@H]1CCNC1=O (stereo not given in full) | 70 | 550 | > 50000 | 
CC(C)C[C@H](NC(=O)OC[C@@H]1CCC(=O)N1C[C@H]1C[C@@H]2C=C[C@H]1C2)C(=O)N[C@H](C=O)C[C@@H]1CCNC1=O | 60 | 418 | > 50000 | 
CC(C)C[C@H](NC(=O)OC[C@@H]1CCC(=O)N1Cc1ccco1)C(=O)N[C@H](C=O)C[C@@H]1CCNC1=O | 60 | 330 | > 50000 | 
CC(C)C[C@H](NC(=O)OC[C@@H]1CCC(=O)N1C[C@H]1C[C@@H]2CC[C@H]1C2)C(=O)N[C@H](C=O)C[C@@H]1CCNC1=O | 70 | 500 | > 50000 | 
CC(C)C[C@H](NC(=O)OC[C@@H]1CCC(=O)N1C[C@H]1C[C@@H]2C=C[C@H]1C2)C(=O)N[C@@H](C[C@@H]1CCNC1=O)C(O)S(=O)(=O)O (stereo not given in full) | 60 | 450 | > 50000 | 
CC(C)C[C@H](NC(=O)OCC1CCN(C[C@H]2C[C@H]3C=C[C@@H]2C3)C1=O)C(=O)N[C@@H](C[C@@H]1CCNC1=O)C(O)S(=O)(=O)O (stereo not given in full) | 150 | 550 | > 50000 | 
CC(C)C[C@H](NC(=O)OCC1CC(=O)N(Cc2cccc(C(F)(F)F)c2)C1)C(=O)N[C@H](C=O)C[C@@H]1CCNC1=O (stereo not given in full) | 60 | 410 | > 50000 | 
CC(C)C[C@H](NC(=O)OC[C@@H]1CCC(=O)N1Cc1ccccc1)C(=O)N[C@H](C=O)C[C@@H]1CCNC1=O | 130 | 430 | > 50000 | 
CC(C)C[C@H](NC(=O)OCC1CCN(Cc2ccccc2)C1=O)C(=O)N[C@H](C=O)C[C@@H]1CCNC1=O (stereo not given in full) | 60 | 790 | > 50000 | 
CC(C)C[C@H](NC(=O)OCC1CC(=O)N(Cc2ccccc2)C1)C(=O)N[C@H](C=O)C[C@@H]1CCNC1=O (stereo not given in full) | 80 | 720 | > 50000 | 
CC(C)C[C@H](NC(=O)OCC1CC(=O)N(Cc2ccccc2)C1)C(=O)N[C@@H](C[C@@H]1CCNC1=O)C(O)S(=O)(=O)O (stereo not given in full) | 50 | 650 | > 50000 | 
CC(C)C[C@H](NC(=O)OC[C@@H]1CCC(=O)N1Cc1ccco1)C(=O)N[C@@H](C[C@@H]1CCNC1=O)C(O)S(=O)(=O)O (stereo not given in full) | 50 | 250 | > 50000 | 
CC(C)C[C@H](NC(=O)OCC1CCN(C[C@H]2C[C@H]3CC[C@@H]2C3)C1=O)C(=O)N[C@@H](C[C@@H]1CCNC1=O)C(O)S(=O)(=O)O (stereo not given in full) | 130 | 510 | > 50000 | 
CC(C)C[C@H](NC(=O)OCC1CCN(Cc2ccco2)C1=O)C(=O)N[C@H](C=O)C[C@@H]1CCNC1=O (stereo not given in full) | 130 | 1960 | > 50000 | 
CC(C)C[C@H](NC(=O)OCC1CCN(Cc2ccccc2)C1=O)C(=O)N[C@@H](C[C@@H]1CCNC1=O)C(O)S(=O)(=O)O (stereo not given in full) | 60 | 820 | > 50000 | 
CC(C)C[C@H](NC(=O)OC[C@@H]1CCC(=O)N1CCc1ccccc1)C(=O)N[C@H](C=O)C[C@@H]1CCNC1=O | 140 | 730 | > 50000 | 
CC(C)C[C@H](NC(=O)OCC1CC(=O)N(Cc2ccco2)C1)C(=O)N[C@@H](C[C@@H]1CCNC1=O)C(O)S(=O)(=O)O (stereo not given in full) | 80 | 560 | > 50000 | 
CC(C)C[C@H](NC(=O)OC[C@H]1CCC(=O)N1CC1CCCCC1)C(=O)N[C@@H](C[C@@H]1CCNC1=O)C(O)S(=O)(=O)O (stereo not given in full) | 80 | 510 | > 50000 | 
